Assay results: patent US4218395A, “Ureylene naphthalene sulfonic acids” (American Cyanamid Company, priority 1978, dated 1980)
Where a name gives a salt, the structure may show the parent alone.

How the values were obtained:
whole complement = assay: In vivo complement inhibition in dosed guinea pigs (whole complement, capillary tube assay); conditions: i.p., 200 mg/kg
Source text: (§1) An active inhibitor protects C2 from C1 and C4; (ii) Test, Code 035 (C3-C9 inhibitor)-This test determines the ability of the late components of human complement (C3-C9) to lyse EAC 142 in the presence of appropriate dilutions of the test compound. An active inhibitor protects EAC 142 from lysis by human C3-C9; (iii) Test, Code 036 (C-Shunt inhibitor)--In this test human erythrocytes rendered fragile are lysed in autologous serum via the shunt pathway activated by cobra venom factor in the presence of appropriate dilutions of the test compound. Inhibition of the shunt pathway results in failure of lysis; (iv) Forssman Vasculitis Test--Here, the well known complement dependent lesion, Forssman vasculitis, is produced in guinea pigs by intradermal injection of rabbit anti-Forssman antiserum. The lesion is measured in terms of diameter, edema and hemorrhage and the extent to which a combined index of these is inhibited by prior intraperitoneal injection of the test compound at 200 mg/kg is then reported, unless otherwise stated; (v) Forssman Shock Test--Lethal shock is produced in guinea pigs by an i.v. injection of anti-Forssman antiserum and the harmonic mean death time of treated guinea pigs is compared with that of simultaneous controls; (vi) Complement Level Reduction Test--In this test, the above dosed guinea pigs, or others, are bled for serum and the complement level is determined in undiluted serum by the capillary tube method of U.S. Pat. No. 3,876,376 and compared to undosed control guinea pigs; and (vii) Cap 50 Test--Here, appropriate amounts of the test compound are added to a pool of guinea pig serum in vitro, after which the undiluted serum capillary tube assay referred to above is run. The concentration of compound inhibiting 50% is reported.
With reference to Table I, guinea pigs weighing about 300 g were dosed intravenously (i.v.) or intraperitoneally (i.p.) with 200 mg/kg of the test compound dissolved in saline and adjusted to pH 7-8. One hour after dosing, the guinea pigs were decapitated, blood was collected and the serum separated. The serum was tested for whole complement using the capillary tube assay. Percent inhibition was calculated by comparison with simultaneous controls. The results appear in Table I together with results of tests, code 026, 035, 036, Cap 50, % inhibition and Forssman shock.

shunt pathway = assay: Test, Code 036 (C-Shunt inhibitor): lysis of human erythrocytes via shunt pathway activated by cobra venom factor; type: cell-based; conditions: activity in wells, twofold serial dilution assay; higher well number indicates higher activity
Source text: as §1
(§2) With reference to Table I, guinea pigs weighing about 300 g were dosed intravenously (i.v.) or intraperitoneally (i.p.) with 200 mg/kg of the test compound dissolved in saline and adjusted to pH 7-8. […] Percent inhibition was calculated by comparison with simultaneous controls. […]

[1] = test system: late components of human complement (C3-C9); assay: Test, Code 035 (C3-C9 inhibitor): lysis of EAC 142; type: cell-based; conditions: activity in wells, twofold serial dilution assay; higher well number indicates higher activity
Source text: as §1, §2

human C1 = biological target: T1, human C1 (Homo sapiens, UniProt P09871); assay: Test, Code 026 (C1 inhibitor); type: biochemical; conditions: activity in wells, twofold serial dilution assay; higher well number indicates higher activity
T1 construct: hemolytic test of fluid-phase C2 destruction in presence of C4
T1 sequence (P09871 16-688): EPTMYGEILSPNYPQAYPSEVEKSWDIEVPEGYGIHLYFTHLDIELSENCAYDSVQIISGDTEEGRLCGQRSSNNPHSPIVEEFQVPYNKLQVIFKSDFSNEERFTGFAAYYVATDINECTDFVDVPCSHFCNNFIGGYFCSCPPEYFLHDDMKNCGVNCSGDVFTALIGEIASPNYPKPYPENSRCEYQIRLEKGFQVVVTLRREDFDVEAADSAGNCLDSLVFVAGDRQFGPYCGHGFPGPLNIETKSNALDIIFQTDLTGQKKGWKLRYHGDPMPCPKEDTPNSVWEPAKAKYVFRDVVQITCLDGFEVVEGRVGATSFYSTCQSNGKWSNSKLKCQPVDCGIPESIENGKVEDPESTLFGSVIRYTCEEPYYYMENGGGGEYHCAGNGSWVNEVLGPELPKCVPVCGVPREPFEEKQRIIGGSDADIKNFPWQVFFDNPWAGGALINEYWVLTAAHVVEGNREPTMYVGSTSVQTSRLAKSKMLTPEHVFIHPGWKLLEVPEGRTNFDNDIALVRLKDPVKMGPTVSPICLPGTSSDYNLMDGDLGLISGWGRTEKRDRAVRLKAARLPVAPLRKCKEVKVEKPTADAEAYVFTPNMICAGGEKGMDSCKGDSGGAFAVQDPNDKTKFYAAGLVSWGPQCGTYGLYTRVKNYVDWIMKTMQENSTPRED
T1 sequence (P00736 18-705 partner): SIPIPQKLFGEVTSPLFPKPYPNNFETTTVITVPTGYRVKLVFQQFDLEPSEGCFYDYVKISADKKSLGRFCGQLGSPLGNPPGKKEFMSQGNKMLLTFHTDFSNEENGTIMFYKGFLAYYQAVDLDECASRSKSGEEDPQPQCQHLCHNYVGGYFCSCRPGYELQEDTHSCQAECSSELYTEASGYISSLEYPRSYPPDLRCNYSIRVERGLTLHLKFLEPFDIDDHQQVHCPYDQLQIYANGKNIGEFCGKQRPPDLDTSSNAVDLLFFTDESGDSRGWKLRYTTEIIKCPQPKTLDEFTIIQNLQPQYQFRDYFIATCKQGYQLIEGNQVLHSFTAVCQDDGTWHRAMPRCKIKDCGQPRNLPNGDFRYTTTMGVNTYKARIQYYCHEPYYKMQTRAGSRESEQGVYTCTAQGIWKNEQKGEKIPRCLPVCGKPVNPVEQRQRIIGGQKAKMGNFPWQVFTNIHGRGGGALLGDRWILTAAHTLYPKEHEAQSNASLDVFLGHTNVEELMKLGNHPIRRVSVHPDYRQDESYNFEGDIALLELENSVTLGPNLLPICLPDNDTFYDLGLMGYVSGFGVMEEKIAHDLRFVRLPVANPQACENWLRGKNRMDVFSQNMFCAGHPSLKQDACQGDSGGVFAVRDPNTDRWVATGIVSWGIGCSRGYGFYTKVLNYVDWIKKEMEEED
T1 sequence (P02745 23-245 partner): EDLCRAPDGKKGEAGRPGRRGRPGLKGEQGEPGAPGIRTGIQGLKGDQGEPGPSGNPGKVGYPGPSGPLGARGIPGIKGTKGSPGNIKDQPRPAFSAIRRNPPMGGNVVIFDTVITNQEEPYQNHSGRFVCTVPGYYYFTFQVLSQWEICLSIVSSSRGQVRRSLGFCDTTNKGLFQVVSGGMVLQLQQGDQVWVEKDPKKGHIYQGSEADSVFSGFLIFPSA
T1 sequence (P02746 28-253 partner): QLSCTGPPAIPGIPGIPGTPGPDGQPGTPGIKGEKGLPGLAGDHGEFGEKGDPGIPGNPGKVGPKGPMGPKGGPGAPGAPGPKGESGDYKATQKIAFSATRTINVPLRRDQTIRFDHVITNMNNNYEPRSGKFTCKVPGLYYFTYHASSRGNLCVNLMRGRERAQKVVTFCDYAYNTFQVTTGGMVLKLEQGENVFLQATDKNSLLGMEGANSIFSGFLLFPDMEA
T1 sequence (P02747 29-245 partner): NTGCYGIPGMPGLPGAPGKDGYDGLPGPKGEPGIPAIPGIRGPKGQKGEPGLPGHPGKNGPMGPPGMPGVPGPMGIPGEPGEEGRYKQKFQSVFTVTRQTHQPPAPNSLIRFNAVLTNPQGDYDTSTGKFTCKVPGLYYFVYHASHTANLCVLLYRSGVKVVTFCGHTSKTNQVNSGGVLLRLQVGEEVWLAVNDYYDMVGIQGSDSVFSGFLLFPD
Source text: as §1, §2

complement system = conditions: British Journal of Experimental Pathology, 33, 327-339 (1952); Clin. Exp. Immunol., 10, 127-138 (1972); cited from earlier work
human serum complement [2] = conditions: as judged by the reduction in total hemolytic complement activity, Pathologie Biologie, 25, 33-36 (1977); cited from earlier work
human serum complement [3] = conditions: as judged by the reduction in total hemolytic complement activity, Pathologie Biologie, 25, 33-36 (1977); cited from earlier work; remark: listed apart in the source
[4] = test system: hereditary angioneurotic edema; conditions: The New England Journal of Medicine, 286, 808-812 (1972); cited from earlier work

Row | Compound | In Vivo Activity (Guinea Pig) % Inhibition, Intraperitoneal, 30 minutes (whole complement) [%] | In Vivo Activity (Guinea Pig) % Inhibition, Intraperitoneal, 60 minutes (whole complement) [%] | In Vivo Activity (Guinea Pig) % Inhibition, Intraperitoneal, 120 minutes (whole complement) [%] | Shunt Inhibition 036* Wells (shunt pathway) | C-Late 035* Wells [1] | C1 026* Wells (human C1) | effect on the complement system (complement system) | treatment of hereditary angioneurotic edema [4] | other results
1 | O=C(Nc1cc(C(=O)Nc2cc(C(=O)O)cc(C(=O)Nc3ccc(S(=O)(=O)O)c4cc(S(=O)(=O)O)cc(S(=O)(=O)O)c34)c2)cc(C(=O)Nc2cc(C(=O)O)cc(C(=O)Nc3ccc(S(=O)(=O)O)c4cc(S(=O)(=O)O)cc(S(=O)(=O)O)c34)c2)c1)Nc1cc(C(=O)Nc2cc(C(=O)O)cc(C(=O)Nc3ccc(S(=O)(=O)O)c4cc(S(=O)(=O)O)cc(S(=O)(=O)O)c34)c2)cc(C(=O)Nc2cc(C(=O)O)cc(C(=O)Nc3ccc(S(=O)(=O)O)c4cc(S(=O)(=O)O)cc(S(=O)(=O)O)c34)c2)c1 [3,3',3",3'"-{Ureylenebis[s-phenenylbis(carbonylimino]}tetrakis[5-(4,6,8-trisulfo-1-naphthyl)carbamoyl]benzoic acid dodecasodium salt] | -90 | -94 | -89 | +5 Wells | +2 Wells | +7 Wells |  |  | 
2 | heparin |  |  |  |  |  |  | anticomplementary effect |  | 
3 | pentosan-poly-sulfoester |  |  |  |  |  |  |  |  | anticomplementary activity on human serum in vitro (human serum complement [2]): anticomplementary activity; anticomplementary activity on human serum in vivo (human serum complement [3]): anticomplementary activity
4 | Cc1ccc(C(=O)Nc2ccc(S(=O)(=O)O)c3cc(S(=O)(=O)O)cc(S(=O)(=O)O)c23)cc1NC(=O)c1cccc(NC(=O)Nc2cccc(C(=O)Nc3cc(C(=O)Nc4ccc(S(=O)(=O)O)c5cc(S(=O)(=O)O)cc(S(=O)(=O)O)c45)ccc3C)c2)c1 [Suramin] |  |  |  |  |  |  | competitive inhibitor of the complement system | used with success | 
5 | Cc1ccc(C(=O)Nc2ccc(S(=O)(=O)O)c3cc(S(=O)(=O)O)cc(S(=O)(=O)O)c23)cc1NC(=O)c1cc(NC(=O)Nc2cc(C(=O)Nc3cc(C(=O)Nc4ccc(S(=O)(=O)O)c5cc(S(=O)(=O)O)cc(S(=O)(=O)O)c45)ccc3C)cc(C(=O)Nc3cc(C(=O)Nc4ccc(S(=O)(=O)O)c5cc(S(=O)(=O)O)cc(S(=O)(=O)O)c45)ccc3C)c2)cc(C(=O)Nc2cc(C(=O)Nc3ccc(S(=O)(=O)O)c4cc(S(=O)(=O)O)cc(S(=O)(=O)O)c34)ccc2C)c1 [8,8',8",8'"-{Ureylenebis{s-phenenylbis[carbonylimino(4-methyl-3,1-phenylene)carbonylimino]}}tetra-1,3,5-naphthalenetrisulfonic acid dodecasodium salt] | -62 | -84 | -95 | +4 Wells | +3 Wells | +6 Wells |  |  | 
6 | NCCCCCC(=O)O [epsilon-aminocaproic acid] |  |  |  |  |  |  |  | used with success | 
7 | Nc1cc(C(=O)Nc2cc(C(=O)O)cc(C(=O)Nc3ccc(S(=O)(=O)O)c4cc(S(=O)(=O)O)cc(S(=O)(=O)O)c34)c2)cc(C(=O)Nc2cc(C(=O)O)cc(C(=O)Nc3ccc(S(=O)(=O)O)c4cc(S(=O)(=O)O)cc(S(=O)(=O)O)c34)c2)c1 [3,3'-[5-Amino-m-phenylenebis(carbonylimino)]bis{5-[4,6,8-trisulfo-1-naphthyl)carbamoyl]}benzoic acid hexasodium salt] | -40 | -61 | -61 | +2 Wells | +2 Wells | +4 Wells |  |  | 
8 | NC[C@H]1CC[C@H](C(=O)O)CC1 [tranexamic acid] |  |  |  |  |  |  |  | used with success | 
9 | Nc1ccc2cc(S(=O)(=O)O)cc(O)c2c1N=Nc1ccc(NC(=O)Nc2ccc(N=Nc3c(N)ccc4cc(S(=O)(=O)O)cc(O)c34)c(S(=O)(=O)O)c2)cc1S(=O)(=O)O [chlorazol fast pink, 3,3'-ureylenebis-[6-(2-amino-8-hydroxy-6-sulfo-1-naphthylazo)]benzenesulfonic acid, tetrasodium salt] |  |  |  |  |  |  | anticomplementary effect |  | 
